Patent US8722663B2, “Di-substituted pyridine derivatives as anticancers” (Otsuka Pharmaceutical Co., Ltd., priority 2010, dated 2014)
Where a name gives a salt, the structure may show the parent alone.

Tests used:
[1] = tested on: human hepatic cancer cell line (HuH-7); experiment: Growth inhibition of HuH-7 cells, sulforhodamine B method; assay type: cell-based; conditions: 5 days with test compound
Protocol: (§1) Growth inhibition of a human breast cancer cell line (MDA-MB-468) was determined by the sulforhodamine B method based on the method of Skehan P. et al. (J Natl Cancer Inst. 1990 Jul. 4; 82(13): 1107-12). In the study, MDA-MB-468 cells were seeded on DMEM medium containing 10% fetal bovine serum in a 96-well microplate. After 24-h incubation at 37° C. in the presence of 5% carbon dioxide, the test compound was added and the cells were incubated for another 5 days. After incubation, a trichloroacetic acid solution was added to yield the final concentration of 10% and the cells were left to stand at 4° C. for 1 hour to fix. Then, the cells were washed with water to remove the medium and trichloroacetic acid and dried in the air. The dried cells were stored at 4° C. until they were stained with sulforhodamine B. To each well, 1% acetic acid solution containing 0.4% sulforhodamine B was added and left to stand for 20 to 30 minutes at room temperature. After discarding the supernatant, each well was washed with 1% acetic acid solution, and 10 mM Tris([…]) solution was added while stirring to elute the dye taken into the cells. Then, the optical density was determined at the measurement wavelength of 492 nm and the reference wavelength of 690 nm, and the difference was calculated. The cell growth activity in each well was defined as the value determined by subtracting the OD in the control well not containing cells (the difference in absorbance between 492 nm and 690 nm) from that in the test well.
(§2) The 50% inhibitory concentration (IC50 (nM)) of the test compound was determined by comparing the cell growth activity in the well containing the test compound with that of the control not containing the test compound.
The growth inhibition on a human hepatic cancer cell line (HuH-7) was also determined by the above method.

[2] = tested on: human breast cancer cell line (MDA-MB-468); experiment: Growth inhibition of MDA-MB-468 cells, sulforhodamine B method; assay type: cell-based; conditions: 120 h, 5 days with test compound
Protocol: as §1, §2

Compound | IC50 ([1]; Homo sapiens, 120 h) [nM] | melting point [°C] | IC50 [1] [nM] | IC50 [2] [nM]
CCOc1ccc(OCCOc2ccc(CN3CCN(C(=O)/C=C/c4cc(C)c(Oc5ccc(OCc6ccc(C)cc6)cn5)c(Cl)c4)CC3)cc2)cc1 [Example 315, (E)-3-[3-Chloro-5-methyl-4-({5-[(4-methylbenzyl)oxy]pyridin-2-yl}oxy)phenyl]-1-(4-{4-[2-(4-ethoxyphenoxy)ethoxy]benzyl}piperazin-1-yl)prop-2-en-1-one] | < 10 |  |  | 
Cc1cc(/C=C/C(=O)N2CCN(Cc3ccc(COc4ccc(OC(C)C)cc4)cc3)CC2)cc(C)c1Oc1ccc(OCc2ccc(C#N)cc2)cn1.Cl [Example 647, 4-({[6-(2,6-Dimethyl-4-{(E)-3-oxo-3-[4-(4-{[4-(propan-2-yloxy)phenoxy]methyl}benzyl)-piperazin-1-yl]prop-1-en-1-yl}phenoxy)pyridin-3-yl]oxy}methyl)benzonitrile hydrochloride] | < 10 | 216.2 to 219.2 |  | 
Cc1ccc(CN2CCN(C(=O)/C=C/c3cc(C)c(Oc4ccc(OCc5ccc(C(C)C)cc5)cn4)c(Cl)c3)CC2)cc1 [Example 358, (E)-3-{3-Chloro-5-methyl-4-[(5-{[4-(propan-2-yl)benzyl]oxy}pyridin-2-yl)oxy]phenyl}-1-[4-(4-methylbenzyl)piperazin-1-yl]prop-2-en-1-one] | < 10 |  |  | 
COc1ccc(OCCc2ccc(CN3CCN(C(=O)/C=C/c4cc(C)c(Oc5ccc(OCc6ccc(C)c(F)c6)cn5)c(Cl)c4)CC3)cc2)cc1 [Example 428, (E)-3-[3-Chloro-4-({5-[3-fluoro-4-methylbenzyl)oxy]pyridin-2-yl}oxy)-5-methylphenyl]-1-(4-{4-[2-(4-methoxyphenoxy)ethyl]benzyl}piperazin-1-yl)prop-2-en-1-one hydrochloride] |  |  | < 10 | 
Cc1cc(/C=C/C(=O)N2CCN(Cc3ccc(Cl)cc3)CC2)cc(Cl)c1Oc1ccc(OCCc2ccc(Cl)cc2)cn1.Cl [Example 765, (E)-1-[4-(4-Chlorobenzyl)piperazin-1-yl]-3-[3-chloro-4-({5-[2-(4-chlorophenyl)ethoxy]pyridin-2-yl}oxy)-5-methylphenyl]prop-2-en-1-one hydrochloride] |  | 220 to 220.9 |  | < 10
COc1ccc(OCCc2ccc(CN3CCN(C(=O)/C=C/c4cc(C)c(Oc5ccc(OCc6ccc(C#N)cc6)cn5)c(C)c4)CCO3)cc2)cc1 [Example 402, 4-{[(6-{4-[(E)-3-(2-{4-[2-(4-Methoxyphenoxy)ethyl]benzyl}-1,2,5-oxadiazepan-5-yl)-3-oxoprop-1-en-1-yl]-2,6-dimethylphenoxy}pyridin-3-yl)oxy]methyl}benzonitrile] | < 10 |  |  | 
Cc1ccc(CN2CCN(C(=O)/C=C/c3cc(C)c(Oc4ccc(OCc5ccc(F)cc5)cn4)c(Cl)c3)CC2)cc1.Cl [Example 779, (E)-3-[3-Chloro-4-({5-[(4-fluorobenzyl)oxy]pyridin-2-yl}oxy)-5-methylphenyl]-1-[4-(4-methylbenzyl)piperazin-1-yl]prop-2-en-1-one hydrochloride] |  | 223.9 to 224.5 |  | < 10
Cc1cc(/C=C/C(=O)N2CCN(Cc3ccc(CCOc4ccc(Cl)cc4)c(F)c3)CC2)cc(C)c1Oc1ccc(OCc2ccc(C#N)cc2)cn1.Cl [Example 614, 4-{[(6-{4-[(E)-3-(4-{4-[2-(4-Chlorophenoxy)ethyl]-3-fluorobenzyl}piperazin-1-yl)-3-oxoprop-1-en-1-yl]-2,6-dimethylphenoxy}pyridin-3-yl)oxy]methyl}benzonitrile hydrochloride] |  | 240.5 to 243.5 |  | < 10
COc1ccc(CCOc2ccc(CN3CCN(C(=O)/C=C/c4cc(C)c(Oc5ccc(OCc6ccc(C(F)(F)F)cc6)cn5)c(Cl)c4)CC3)cc2)cc1 [Example 688, (E)-3-{3-Chloro-5-methyl-4-[(5-{[4-(trifluoromethyl)benzyl]oxy}pyridin-2-yl)oxy]phenyl}-1-(4-{4-[2-(4-methoxyphenyl)ethoxy]benzyl}piperazin-1-yl)prop-2-en-1-one hydrochloride] | < 10 |  |  | 
Cc1cc(/C=C/C(=O)N2CCN(Cc3ccc(COc4ccc(OC(C)C)cc4)c(F)c3)CC2)cc(Cl)c1Oc1ccc(OCc2ccc(C#N)cc2)cn1.Cl [Example 640, 4-({[6-(2-Chloro-4-{(E)-3-[4-(3-fluoro-4-{[4-(propan-2-yloxy)phenoxy]methyl}benzyl)-piperazin-1-yl]-3-oxoprop-1-en-1-yl}-6-methylphenoxy)pyridin-3-yl]oxy}methyl)benzonitrile hydrochloride] |  | 141.8 to 141.9 |  | < 10

Results, then the compound that gave them:

IC50 ([1]; Homo sapiens, 120 h) [nM] | melting point [°C] | IC50 [1] [nM] | IC50 [2] [nM] | Compound
< 10 |  |  |  | Cc1ccc(OC/C=C/c2ccc(CN3CCN(C(=O)/C=C/c4cc(C)c(Oc5ccc(OCc6ccc(F)cc6)cn5)c(C)c4)CC3)cc2C)cc1 [Example 407, (2E)-3-[4-({5-[(4-fluorobenzyl)oxy]pyridin-2-yl}oxy)-3,5-dimethylphenyl]-1-(4-{3-methyl-4-[(1E)-3-(4-methylphenoxy)prop-1-en-1-yl]benzyl}piperazin-1-yl)prop-2-en-1-one]
< 10 |  |  |  | C=Cc1ccc(CN2CCN(C(=O)/C=C/c3cc(C)c(Oc4ccc(OCc5ccccc5Cl)cn4)c(Cl)c3)CC2)cc1 [Example 391, (E)-3-[3-chloro-4-({5-[(2-chlorobenzyl)oxy]pyridin-2-yl}oxy)-5-methylphenyl]-1-[4-(4-ethenylbenzyl)-piperazin-1-yl]prop-2-en-1-one]
 | 223.1 to 224 |  | < 10 | Cc1ccc(CN2CCN(C(=O)/C=C/c3cc(C)c(Oc4ccc(OCc5ccc(Cl)cc5)cn4)c(Cl)c3)CC2)cc1.Cl [Example 781, (E)-3-[3-Chloro-4-({5-[(4-chlorobenzyl)oxy]pyridin-2-yl}oxy)-5-methylphenyl]-1-[4-(4-methylbenzyl)piperazin-1-yl]prop-2-en-1-one hydrochloride]
 | 134.7 to 136.4 |  | < 10 | C/C(=C\c1cc(C)c(Oc2ccc(OCc3ccc(C)cc3)cn2)c(Cl)c1)C(=O)N1CCN(Cc2ccc(CCOc3ccc(C)cc3)cc2)CC1.Cl [Example 411, (E)-3-[3-Chloro-5-methyl-4-({5-[(4-methylbenzyl)oxy]pyridin-2-yl}oxy)phenyl]-2-methyl-1-(4-{4-[2-(4-methylphenoxy)ethyl]benzyl}piperazin-1-yl)prop-2-en-1-one hydrochloride]
 | 211.3 to 211.7 |  | < 10 | C/C(=C\C(=O)N1CCN(Cc2ccc(CCOc3ccc(F)cc3)cc2)CC1)c1cc(C)c(Oc2ccc(OCc3ccc(C)cc3)cn2)c(Cl)c1.O=C(O)C(=O)O [Example 746, (E)-3-[3-Chloro-5-methyl-4-({5-[(4-methylbenzyl)oxy]pyridin-2-yl}oxy)phenyl]-1-(4-{4-[2-(4-fluorophenoxy)ethyl]benzyl}piperazin-1-yl)but-2-en-1-one ethanedioate]
< 10 |  |  |  | CC(C)c1ccc(OCCc2ccc(CN3CCN(C(=O)c4ccc5cc(Oc6ccc(OCc7cccc(F)c7F)cn6)ccc5c4)CC3)cc2)cc1 [Example 542, [6-({5-[(2,3-Difluorobenzyl)oxy]pyridin-2-yl}oxy)naphthalen-2-yl][4-(4-{2-[4-(propan-2-yl)phenoxy]ethyl}benzyl)piperazin-1-yl]methanone hydrochloride]
< 10 |  |  |  | Cc1cc(/C=C/C(=O)N2CCN(Cc3ccc(CCOCc4ccc(Cl)cc4)cc3)CC2)cc(C)c1Oc1ccc(OCc2ccncc2)cn1 [Example 384, (E)-1-[4-(4-{2-[(4-chlorobenzyl)oxy]ethyl}benzyl)piperazin-1-yl]-3-(3,5-dimethyl-4-{[5-(pyridin-4-ylmethoxy)pyridin-2-yl]oxy}phenyl)prop-2-en-1-one]
